Experimental data from ChEMBL document CHEMBL3407393, “Optimisation of LRRK2 inhibitors and assessment of functional efficacy in cell-based models of neuroinflammation” (Eur J Med Chem, 2015).
Activity calls are given as the source filed them. The rule behind the calls is not given here.

What was measured:
[1] = target: Leucine-rich repeat serine/threonine-protein kinase 2 (Homo sapiens, UniProt Q5S007, G2019S); assay: Inhibition of LRRK2 G2019S mutant ([…]) (unknown origin) stably expressed in HEK293 cell lysate using [gamma-32P] after 15 mins by Cerenkov counting method; assay type: cell-free
[2] = (§1) Inhibition of IL6 secretion in LPS/IL-1beta-stimulated human primary microglia compound pretreated at 10 uM for 30 mins before stimulation measured after 24 hrs by ELISA; assay type: functional
[3] = Inhibition of IL6 secretion in LPS/IL-1beta-stimulated human U87 cells compound pretreated at 10 uM for 30 mins before stimulation measured after 24 hrs by ELISA; assay type: functional, U-87MG ATCC; settings: U-87 MG
Homo sapiens = species: Homo sapiens; assay: as §1; assay type: functional
[4] = Inhibition of IL6 secretion in LPS/IL-1beta-stimulated human primary microglia compound pretreated for 30 mins before stimulation measured after 24 hrs by ELISA; assay type: functional
[5] = Inhibition of IL6 secretion in LPS/IL-1beta-stimulated human U87 cells compound pretreated for 30 mins before stimulation measured after 24 hrs by ELISA; assay type: functional, cell-based, U-87MG ATCC; settings: U-87 MG
[6] = Biochemical index, ratio of IC50 for LRRK2 G2019S mutant (unknown origin) to EC50 for IL6 secretion in LPS/IL-1beta-stimulated human primary microglia
[7] = Oral bioavailability in mouse; assay type: ADME, organism-based; settings: in vivo

Sequence of Leucine-rich repeat serine/threonine-protein kinase 2 (Q5S007 whole entry G2019S): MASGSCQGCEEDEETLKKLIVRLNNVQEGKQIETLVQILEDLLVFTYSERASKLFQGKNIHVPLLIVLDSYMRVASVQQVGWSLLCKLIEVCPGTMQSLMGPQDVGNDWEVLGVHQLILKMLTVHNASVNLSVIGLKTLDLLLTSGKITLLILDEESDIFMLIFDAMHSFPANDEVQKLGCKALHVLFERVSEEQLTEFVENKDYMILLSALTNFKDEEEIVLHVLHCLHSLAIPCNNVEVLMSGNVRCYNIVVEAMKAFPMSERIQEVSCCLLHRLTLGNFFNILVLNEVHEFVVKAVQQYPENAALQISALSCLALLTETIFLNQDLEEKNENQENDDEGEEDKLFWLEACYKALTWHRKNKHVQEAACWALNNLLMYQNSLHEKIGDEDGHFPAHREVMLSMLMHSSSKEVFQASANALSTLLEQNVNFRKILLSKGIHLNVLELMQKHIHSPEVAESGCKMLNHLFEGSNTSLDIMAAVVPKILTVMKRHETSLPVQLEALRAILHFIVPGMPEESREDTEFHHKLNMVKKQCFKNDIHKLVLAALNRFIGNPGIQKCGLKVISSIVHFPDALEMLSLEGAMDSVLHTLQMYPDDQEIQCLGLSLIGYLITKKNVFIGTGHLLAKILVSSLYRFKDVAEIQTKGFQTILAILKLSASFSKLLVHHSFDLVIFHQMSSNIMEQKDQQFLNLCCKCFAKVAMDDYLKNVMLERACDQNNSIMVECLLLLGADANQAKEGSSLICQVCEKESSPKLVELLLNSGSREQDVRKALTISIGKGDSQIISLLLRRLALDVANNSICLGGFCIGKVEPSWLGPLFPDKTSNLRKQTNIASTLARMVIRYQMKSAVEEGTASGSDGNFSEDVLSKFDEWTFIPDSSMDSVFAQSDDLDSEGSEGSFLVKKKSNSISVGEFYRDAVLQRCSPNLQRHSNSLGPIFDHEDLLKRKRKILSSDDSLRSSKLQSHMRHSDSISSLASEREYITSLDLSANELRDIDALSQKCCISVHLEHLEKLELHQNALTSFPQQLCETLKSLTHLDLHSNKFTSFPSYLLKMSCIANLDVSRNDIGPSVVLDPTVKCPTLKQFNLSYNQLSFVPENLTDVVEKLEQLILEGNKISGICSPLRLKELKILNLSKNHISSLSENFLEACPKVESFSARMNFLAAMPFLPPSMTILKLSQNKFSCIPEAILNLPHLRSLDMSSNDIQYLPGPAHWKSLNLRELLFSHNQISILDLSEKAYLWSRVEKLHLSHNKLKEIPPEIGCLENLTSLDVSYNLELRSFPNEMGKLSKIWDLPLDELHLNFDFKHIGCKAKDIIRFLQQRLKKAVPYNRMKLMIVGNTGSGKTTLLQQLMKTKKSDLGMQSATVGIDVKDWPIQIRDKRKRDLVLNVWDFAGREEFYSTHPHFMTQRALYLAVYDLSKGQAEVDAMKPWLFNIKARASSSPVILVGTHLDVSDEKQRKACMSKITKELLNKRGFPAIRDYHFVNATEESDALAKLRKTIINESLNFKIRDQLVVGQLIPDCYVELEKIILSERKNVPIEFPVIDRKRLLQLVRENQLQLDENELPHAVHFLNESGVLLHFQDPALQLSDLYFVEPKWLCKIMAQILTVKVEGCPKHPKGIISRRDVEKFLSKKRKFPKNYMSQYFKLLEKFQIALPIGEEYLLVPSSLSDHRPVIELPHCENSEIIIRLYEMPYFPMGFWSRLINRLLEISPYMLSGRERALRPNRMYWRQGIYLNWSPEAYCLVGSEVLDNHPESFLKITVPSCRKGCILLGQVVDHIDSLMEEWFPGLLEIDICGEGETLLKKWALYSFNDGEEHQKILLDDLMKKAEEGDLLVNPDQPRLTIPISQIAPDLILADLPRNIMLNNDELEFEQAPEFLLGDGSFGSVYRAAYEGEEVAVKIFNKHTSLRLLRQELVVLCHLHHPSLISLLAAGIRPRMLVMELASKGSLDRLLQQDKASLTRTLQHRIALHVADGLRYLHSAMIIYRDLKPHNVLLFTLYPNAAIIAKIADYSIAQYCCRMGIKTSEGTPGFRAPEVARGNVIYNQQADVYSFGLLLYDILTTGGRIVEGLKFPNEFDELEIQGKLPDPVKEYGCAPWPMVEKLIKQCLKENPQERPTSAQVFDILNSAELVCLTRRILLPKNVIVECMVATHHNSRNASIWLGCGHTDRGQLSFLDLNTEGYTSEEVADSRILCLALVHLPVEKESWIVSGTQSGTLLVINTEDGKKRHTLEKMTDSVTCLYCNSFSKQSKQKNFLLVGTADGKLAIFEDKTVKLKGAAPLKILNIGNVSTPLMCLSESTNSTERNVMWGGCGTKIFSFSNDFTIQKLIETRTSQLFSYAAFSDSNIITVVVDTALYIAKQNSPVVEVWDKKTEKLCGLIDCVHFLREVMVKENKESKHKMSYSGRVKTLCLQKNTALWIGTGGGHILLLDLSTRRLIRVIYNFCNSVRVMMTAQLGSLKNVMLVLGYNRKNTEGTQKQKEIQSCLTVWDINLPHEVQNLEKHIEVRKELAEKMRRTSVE

Row | SMILES | IC50 [1] | EC50 [4] | EC50 [5] | bioavailability [7] | inhibition at 10 µM [2] | inhibition at 10 µM [3] | inhibition (Homo sapiens) | Ratio IC50/EC50 [6]
1 | O=C(c1ccc(Nc2ccc([N+](=O)[O-])cc2)c(Cl)c1)N1CCC(N2CCCCC2)CC1 | > 1 µM |  |  |  | 53.6% | 47.9% |  | 
2 | COc1cccc(Nc2ccc(C(=O)N3CCC(N4CCCCC4)CC3)cc2Cl)c1 | > 1 µM |  |  |  | 53% | 47.8% |  | 
3 | O=C(c1ccc(Nc2cncnc2)c(Cl)c1)N1CCC(N2CCCCC2)CC1 | > 1 µM |  |  |  |  | 40.7% |  | 
4 | Cc1ccc(CNc2ccc(C(=O)N3CCC(N4CCCCC4)CC3)cc2Cl)cc1 | > 1 µM |  |  |  | 42% | 36.1% |  | 
5 | O=C(c1ccc(NCc2ccccc2)c(Cl)c1)N1CCC(N2CCCCC2)CC1 | > 1 µM |  |  |  | 65.3% | 62.6% |  | 
6 | Cn1cccc1CNc1ccc(C(=O)N2CCC(N3CCCCC3)CC2)cc1Cl | > 1 µM |  |  |  | 17.3% | 42.4% |  | 
7 | O=C(Nc1ccc(C(=O)N2CCC(N3CCCCC3)CC2)cc1Cl)c1ccc[nH]1 | > 1 µM |  |  |  |  | 51.9% | inactive | 
8 | CC(=O)Nc1ccc(Nc2ccc(C(=O)N3CCC(N4CCCCC4)CC3)cc2Cl)cc1 | > 1 µM |  |  |  | 31.8% | 36.1% |  | 
9 | O=C(c1ccc(Nc2ccccc2[N+](=O)[O-])c(Cl)c1)N1CCC(N2CCCCC2)CC1 | > 1 µM |  |  |  | 65.4% | 45.6% |  | 
10 | COc1cccc(CNc2ccc(C(=O)N3CCC(N4CCCCC4)CC3)cc2Cl)c1 | > 1 µM |  |  |  | 52.9% | 52% |  | 
11 | COc1ccccc1Nc1ccc(C(=O)N2CCC(N3CCCCC3)CC2)cc1Cl | > 1 µM |  |  |  | 56.6% | 58.6% |  | 
12 | O=C(c1ccc(NCc2ccc([N+](=O)[O-])cc2)c(Cl)c1)N1CCC(N2CCCCC2)CC1 | > 1 µM |  |  |  | 56.3% | 56.4% |  | 
13 | O=C(c1ccc(Nc2ccccc2)c(Cl)c1)N1CCC(N2CCCCC2)CC1 | > 1 µM |  |  |  | 44.7% | 32.3% |  | 
14 | Cc1ccc(Nc2ccc(C(=O)N3CCC(N4CCCCC4)CC3)cc2Cl)cc1 | > 1 µM |  |  |  | 29.7% | 37.8% |  | 
15 | CN1Cc2ccccc2N(C)c2nc(Cl)ncc21 | > 1 µM |  |  |  | 6.3% | 64.6% |  | 
16 | CCCNc1ccc(C(=O)N2CCC(N3CCCCC3)CC2)cc1Cl | > 1 µM |  |  |  | 47.6% | 55.8% |  | 

More lines, main results first:

Row | IC50 [1] | EC50 [4] | EC50 [5] | bioavailability [7] | SMILES | inhibition at 10 µM [2] | inhibition at 10 µM [3] | inhibition (Homo sapiens) | Ratio IC50/EC50 [6]
17 | 0.0512 µM |  |  |  | CN1Cc2ccccc2N(C)c2nc(Nc3ccc(C(=O)N4CCC(N5CCCCC5)CC4)cc3Cl)ncc21 | 70% | 58.8% |  | 
18 | > 1 µM |  |  |  | O=C(c1ccc(Nc2ncccn2)c(Cl)c1)N1CCC(N2CCCCC2)CC1 | 46.4% | 39.3% |  | 
19 | > 1 µM |  |  |  | CN1C(=O)c2ccccc2N(C)c2nc(Cl)ncc21 | 18% | 23.2% |  | 
20 | > 1 µM |  |  |  | O=C(c1ccc(Nc2ccccn2)c(Cl)c1)N1CCC(N2CCCCC2)CC1 | 7.3% | 46.7% |  | 
21 | > 1 µM |  |  |  | O=C(c1ccc(NC2CCCCC2)c(Cl)c1)N1CCC(N2CCCCC2)CC1 | 82.4% | 54.2% |  | 
22 | > 1 µM |  |  |  | O=C(c1ccc(Nc2cccnc2)c(Cl)c1)N1CCC(N2CCCCC2)CC1 | 36.3% | 46.6% |  | 
23 | 0.654 µM |  |  |  | Nc1ccc(C(=O)N2CCC(N3CCCCC3)CC2)cc1Cl | 16.9% | 49.9% |  | 
24 | 0.072 µM | 4.26 µM | 3.68 µM |  | CN1C(=O)c2ccccc2N(C)c2nc(Nc3ccc(C(=O)N4CCC(N5CCCCC5)CC4)cc3Cl)ncc21 | 81.3% | 87.9% |  | 0.017
25 | 0.0079 µM | 0.83 µM | 0.66 µM | 49.3% | COc1cc(C(=O)N2CCC(N3CCN(C)CC3)CC2)ccc1Nc1ncc2c(n1)N(C)c1ccccc1C(=O)N2C | 95% | 94.1% |  | 0.009
